Data set [1] has as its system Daudi cell line (AID positive). Nature of the data set: Primary screening cell killing assay, Daudi cell line (AID positive). The class given is cell-based. The conditions noted are these: Homo sapiens, 168 h, cell death on Day 7, Cell-Titer Glo. The procedure, abridged:
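AID-positive Daudi cells, 1250 per well, were exposed to serially diluted compounds for 7 days at 37° C. Viability read by CellTiter-Glo luminescence; percent cell death and EC50 derived against untreated wells after media-blank subtraction.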

Data set [2] concerns WI-38 cells (AID negative). Nature of the data set: Primary screening cell killing assay repeated in WI-38 cells (AID negative). The class given is cell-based. The conditions noted are these: Homo sapiens, 168 h, cell death on Day 7, Cell-Titer Glo. The essentials:
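Cell-killing counter-screen in AID-negative WI-38 cells, probing RAD51 inhibition via AID/RAD51 synthetic lethality. Viability luminescence (RLU) was media-subtracted, normalized to DMSO wells, and converted to percent kill (1 − normalized RLU) × 100; EC50 came from non-linear regression on a semi-log scale.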

A short description of data set [3]: Bi-directional Caco-2 permeability. It is filed as in vitro ADME. Conditions: human; for efflux ratio at 90 min: Caco-2, read-out: BA/AB Ratio; for Papp A→B at 90 min: Caco-2, apical to basolateral, read-out: AB Papp (cm/sec × 10^6); for Papp A→B at 90 min / Papp B→A at 90 min: 37 C, up to 90 minutes; for Papp B→A at 90 min: Caco-2, basolateral to apical, read-out: BA Papp (cm/sec × 10^6). On the procedure: Bi-directional Caco-2 permeability was assayed. Caco-2 cells were seeded onto permeable polycarbonate supports and allowed to differentiate for about 3 weeks prior to being used in the assays. The cells were then exposed to the compounds from either the apical or basolateral sides and incubated at 37 C for up to 90 minutes under light agitation. Compound transport was then measured using LC/MS/MS analysis at 30, 60, and 90 minutes.
For orientation: Passage across Caco-2 layers is used to estimate intestinal permeability.

Where [4] appears, read: Caco-2, Caco-2, AB direction, read-out: AB Recovery %.
Where [5] appears, read: Caco-2, Caco-2, BA direction, read-out: BA Recovery %.

The structures appear in SMILES notation. Where two headings read alike, the source gives them in different places.

The EC50 is the concentration at which the effect is half-maximal. Turning to `CC(C)OC(=O)N[C@H]1CC[C@H](c2ncc(-c3ccc(NC(=O)NCc4ccccc4)cc3S(=O)(=O)NC(C)(C)C)s2)OC1` [Ex. 59B], the EC50 in data set [1] is not above 100 nM. This molecule also came in with an EC50 in data set [2] of more than 1000 nM. Further, the recovery at 90 min in data set [3] (setting [4]) was determined as 56.2%. For the same molecule, in data set [3] (setting [5]), the recovery at 90 min came out at 82%. In data set [3], the efflux ratio at 90 min amounted to 2.1, the Papp A→B at 90 min stood at 4.6 ×10⁻⁶ cm/s and the Papp B→A at 90 min was determined as 9.7 ×10⁻⁶ cm/s.
In data set [1], `CC(C)OC(=O)N[C@H]1CC[C@H](c2nc(F)c(-c3ccc(NC(=O)NCc4ccccc4)cc3S(=O)(=O)NC(C)(C)C)s2)CC1` [Ex. 57, trans-isopropyl N-[4-[5-[4-(benzylcarbamoylamino)-2-(tert-butylsulfamoyl)phenyl]-4-fluoro-thiazol-2-yl]cyclohexyl]carbamate] gave an EC50 not above 100 nM. In data set [2], this molecule gave an EC50 of more than 1000 nM. Besides, the recovery at 90 min in data set [3] (setting [4]) was determined as 61.9%. The recovery at 90 min in data set [3] (setting [5]) worked out at 86.8%. Further, in data set [3], the efflux ratio at 90 min came out at 2.7, the Papp A→B at 90 min is 1.3 ×10⁻⁶ cm/s and the Papp B→A at 90 min is 3.5 ×10⁻⁶ cm/s.
Take `CC(C)OC(=O)Nc1ccc(-c2cnc([C@H]3CC[C@H](NC(=O)OC(C)C)CO3)s2)c(S(=O)(=O)NC(C)(C)C)c1` [Ex. 60B]: the EC50 in data set [1] fell in the range of 100 to 1000 nM. The EC50 in data set [2] was more than 1000 nM. In addition, in data set [3] (setting [4]), the recovery at 90 min was 51.2%. Besides, the recovery at 90 min in data set [3] (setting [5]) stood at 84.3%. Besides, in data set [3], the efflux ratio at 90 min amounted to 1.2, the Papp A→B at 90 min is 11.6 ×10⁻⁶ cm/s and the Papp B→A at 90 min was 13.5 ×10⁻⁶ cm/s.
Turning to `CC(C)OC(=O)N[C@H]1CC[C@H](c2ncc(-c3ccc(NC(=O)N[C@H](C)c4ccccn4)cc3S(=O)(=O)NC(C)(C)C)s2)CC1` [Ex. 30, isopropyl ((1R,4r)-4-(5-(2-(N-(tert-butyl)sulfamoyl)-4-(3-((R)-1-(pyridin-2-yl)ethyl)ureido)phenyl)thiazol-2-yl)cyclohexyl)carbamate], the EC50 in data set [1] was not above 100 nM. This molecule also yielded an EC50 in data set [2] of more than 1000 nM. For the same molecule, the recovery at 90 min in data set [3] (setting [4]) worked out at 79.8%. For the same molecule, in data set [3] (setting [5]), the recovery at 90 min is 116%. Further, in data set [3], the efflux ratio at 90 min is 1.4, the Papp A→B at 90 min came to 11.5 ×10⁻⁶ cm/s and the Papp B→A at 90 min came to 15.7 ×10⁻⁶ cm/s.
As to `CC(C)(C)NS(=O)(=O)c1cc(NC(=O)NCc2ccccc2F)ccc1-c1cnc(C2CCC(NC(=O)OC3COC3)CC2)s1` (stereo not shown) [Ex. 53, oxetan-3-yl ((1r,4r)-4-(5-(2-(N-(tert-butyl)sulfamoyl)-4-(3-(2-fluorobenzyl)ureido)phenyl)thiazol-2-yl)cyclohexyl)carbamate], the EC50 is not above 100 nM in data set [1] and more than 1000 nM in data set [2]. Further, the recovery at 90 min turned out to be 63.1% in data set [3] (setting [4]) and 90.9% in data set [3] (setting [5]). In data set [3], the efflux ratio at 90 min is 1. The Papp A→B at 90 min in data set [3] was found to be 9.3 ×10⁻⁶ cm/s. For the same molecule, in data set [3], the Papp B→A at 90 min came to 9.7 ×10⁻⁶ cm/s.
`CC(C)(C)NS(=O)(=O)c1cc(NC(=O)NCc2ccccc2)ccc1-c1cnc([C@H]2CC[C@H](NC(=O)OC3COC3)CC2)s1` [Ex. 47, trans-oxetan-3-yl N-[4-[5-[4-(benzylcarbamoylamino)-2-(tert-butylsulfamoyl)phenyl]thiazol-2-yl]cyclohexyl]carbamate] displayed an EC50 in data set [1] not above 100 nM. This molecule also displayed an EC50 in data set [2] of more than 1000 nM. In data set [3] (setting [4]), the recovery at 90 min was determined as 65.3%. The recovery at 90 min in data set [3] (setting [5]) was determined as 80.7%. For the same molecule, in data set [3], the efflux ratio at 90 min stood at 1.4, the Papp A→B at 90 min is 8.7 ×10⁻⁶ cm/s and the Papp B→A at 90 min is 12.4 ×10⁻⁶ cm/s.
As for `CC(C)(C)NS(=O)(=O)c1cc(NC(=O)NCc2ccccc2)ccc1-c1cnc([C@H]2CC[C@H](NC(=O)OC(C)(C)C)CC2)s1` [Ex. 10, trans-tert-butyl N-[4-[5-[4-(benzylcarbamoylamino)-2-(tert-butylsulfamoyl)phenyl]thiazol-2-yl]cyclohexyl]carbamate], the EC50 in data set [1] was not above 100 nM; in data set [2] it was more than 1000 nM. Further, the recovery at 90 min in data set [3] (setting [4]) is 59.9%; in data set [3] (setting [5]), 87.2%. Moreover, the efflux ratio at 90 min in data set [3] was 1.3. The Papp A→B at 90 min in data set [3] turned out to be 1.2 ×10⁻⁶ cm/s. The Papp B→A at 90 min in data set [3] was 1.5 ×10⁻⁶ cm/s.

These data come from patent publication US10336746B1, “RAD51 inhibitors” (Cyteir Therapeutics, Inc., priority 2017, dated 2019).
